Values joined by “and” are separate entries in the source; they are usually repeats but may differ in a detail not shown here. Equal values may be shown once.
Columns and labels:
Type in all cases: in vivo, rats
MK-toxicity = MK-toxicity (behavioral toxicity caused by MK-801); conditions: haloperidol alone, at this dose only ataxia eliminated, MK-toxicity only partially eliminated
Description: (§1) Antipsychotic effect of neuroleptics was studied using the model of behavioral toxicity “MK-toxicity” caused by a blocker of NMDA receptors MK-801 (Lapin T. P., Rogawski M. A. Behav. Brain Res. (1995) 70(2):145-151) and a model of phenaminic stereotypy caused by phenamine (Kuczenski R., Schmidt D, Leith N. Brain Res. (1977), 126(1):117-129).
(§2) The minimal effective dose of the neuroleptic haloperidol necessary to completely prevent the development of “MK-toxicity” (MK-801 at a dose of 0.4 mg/kg IM) and phenaminic stereotypy (phenamine at a dose of 10 mg/kg IM) in 80% of the rats was calculated. To estimate the potentiation of the antipsychotic effect of haloperidol, the minimal effective dose of haloperidol in compositions, which completely prevents the development of MK-toxicity and phenaminic stereotypy in rats, was determined.

phenaminic stereotypy [1] = assay: Phenaminic stereotypy (antipsychotic effect of haloperidol); conditions: haloperidol alone, phenamine 10 mg/kg IM
Description: as §1, §2

[2] = test system: catalepsy caused by haloperidol; assay: Haloperidol catalepsy (inclined grid); conditions: for Minimal effective dose of memantine eliminating catalepsy (immobilization time on an inclined grid below 40 seconds), haloperidol 1 mg/kg / Minimal effective dose of memantine eliminating catalepsy (immobilization time on an inclined grid below 40 seconds), haloperidol 3 mg/kg: memantine alone; for Minimal effective dose of memantine eliminating catalepsy (immobilization time on an inclined grid below 40 seconds), haloperidol 3 mg/kg: catalepsy only partially eliminated at this dose (immobilization time 60-70 seconds)
Description: Haloperidol catalepsy is a test for selecting anti-parkinson agents [Campbell A., Baldessarini R. J. Cremens M. C. Neuropharmacology (1988), 27(11):1197-9; Ossowska K. J. Neural. Transm. Park. Dis. Dement. Sect. (1994) 8(1-2):39-71]. Catalepsy degree was estimated by the immobilization time (in sec) of a rat placed on a coarse-mesh grid at an angle of 45° during a 3-minute exposition [Campbell A., Baldessarini R. J., Cremens M. C. Neuropharmacology (1988) 27(11):1197-9 ] 30, 60, 90 and 120 minutes after haloperidol administration. Maximal catalepsy was attained in 40-60 minutes after haloperidol administration (immobilization time on the grid was 140-180 sec) and lasted from 2 to 6 hours depending on the dose of haloperidol (1 or 3 mg/kg). The minimal effective dose of the anti-parkinson agent memantine causing a maximal anticataleptic effect (immobilization time on an inclined grid less than 40 sec) 1 hour after haloperidol administration at a dose of 1 and 3 mg/kg was calculated.
To estimate the potentiation effect of memantine, the minimal effective dose of memantine in the composition causing a maximal anticataleptic effect was determined.

reflex of tail flicking = assay: Tail-flick test (analgesic effect); conditions: drug alone
Description: For these studies, solutions of the composition of the invention were used, which. were prepared using distilled water immediately before administration. The solutions were administered either orally (IG), by a rigid metal probe into the cardiac section of the stomach at a total amount of 0.8 ml, or intramuscularly (IM) at an amount of 0.2 ml, 30 min before testing.
The analgesic effect of the components was estimated by an extension of the latent period of the reflex of tail flicking in the “tail-flick” test [Woolf C. J., Barret G. D., Mitchel D., Myers R. A. (1977) Eur. J. Pharmacol. 45(3);311-314] and of the reflex of hind leg flicking in the hyperalgesia test [Coderre T. J., Melzack R. Brain Res. (1987) 404(1-2):95-106].
For the “tail-flick” test, hyperalgesic rats were selected (latent period of tail flicking on placing into water with a temperature of 51° C. was 3-4 sec).

phenaminic stereotypy [3] = assay: Potentiation of phenaminic stereotypy (psychostimulant effect of phenamine); conditions: phenamine + distilled water
Description: The potentiation of the effect of psychostimulants was studied using the model of phenaminic stereotypy [Kuczenski R., Schmidt D., Leith N. Brain Res. (1977), 126(1):117-29]. Phenamine at a dose of 10 mg/kg IM, or 20 mg/kg IG, causes a marked behavioral stereotypy. To estimate the potentiation effect of phenamine, a phenamine dose in the IM or IG introduced composition was determined, which causes the same stereotypy as phenamine alone at a dose of 10 mg/kg, IM or 20 mg/kg, IG.

O=C(CCCN1CCC(O)(c2ccc(Cl)cc2)CC1)c1ccc(F)cc1 [Haloperidol, haloperidol]
Minimal effective dose of haloperidol completely preventing MK-toxicity (MK-801 0.4 mg/kg IM) (MK-toxicity; IG): > 1 mg/kg
Minimal effective dose of haloperidol completely preventing MK-toxicity (MK-801 0.4 mg/kg IM) (MK-toxicity; IG, listed as haloperidol): > 1 mg/kg
Minimal effective dose of haloperidol completely preventing MK-toxicity (MK-801 0.4 mg/kg IM) (MK-toxicity; IM): > 1 mg/kg
Minimal effective dose of haloperidol completely preventing MK-toxicity (MK-801 0.4 mg/kg IM) (MK-toxicity; IM, listed as haloperidol): > 1 mg/kg
Minimal effective dose of haloperidol completely preventing phenaminic stereotypy in 80% of rats (phenaminic stereotypy [1]; IG): 0.18 ± 0.022 mg/kg
Minimal effective dose of haloperidol completely preventing phenaminic stereotypy in 80% of rats (phenaminic stereotypy [1]; IG, listed as haloperidol): 0.18 mg/kg
Minimal effective dose of haloperidol completely preventing phenaminic stereotypy in 80% of rats (phenaminic stereotypy [1]; IM): 0.15 ± 0.017 mg/kg
Minimal effective dose of haloperidol completely preventing phenaminic stereotypy in 80% of rats (phenaminic stereotypy [1]; IM, listed as haloperidol): 0.15 mg/kg

CC12CC3CC(C)(C1)CC(N)(C3)C2 [Memantine, memantine]
Minimal effective dose of memantine eliminating catalepsy (immobilization time on an inclined grid below 40 seconds), haloperidol 1 mg/kg ([2]; IG): 11.5 mg/kg and 11.5 ± 1.2 mg/kg
Minimal effective dose of memantine eliminating catalepsy (immobilization time on an inclined grid below 40 seconds), haloperidol 3 mg/kg ([2]; IG): > 16.0 mg/kg
Minimal effective dose of memantine eliminating catalepsy (immobilization time on an inclined grid below 40 seconds), haloperidol 3 mg/kg ([2]; IG, listed as memantine): > 16 mg/kg
Minimal effective dose of memantine eliminating catalepsy (immobilization time on an inclined grid below 40 seconds), haloperidol 1 mg/kg ([2]; IM): 7.5 ± 0.7 mg/kg
Minimal effective dose of memantine eliminating catalepsy (immobilization time on an inclined grid below 40 seconds), haloperidol 3 mg/kg ([2]; IM): > 15.0 mg/kg
Minimal effective dose of memantine eliminating catalepsy (immobilization time on an inclined grid below 40 seconds), haloperidol 3 mg/kg ([2]; IM, listed as memantine): > 15 mg/kg
Minimal effective dose of memantine eliminating catalepsy (immobilization time on an inclined grid below 40 seconds), haloperidol 1 mg/kg ([2]; IM, listed as memantine): 7.5 mg/kg
Immobilization time of rats on an inclined grid, catalepsy caused by haloperidol 3 mg/kg ([2]; memantine 15 mg/kg IM): 60 to 70 s
Immobilization time of rats on an inclined grid, catalepsy caused by haloperidol 3 mg/kg ([2]; memantine 16 mg/kg IG): 60 to 70 s

CN1CC[C@]23c4c5ccc(O)c4O[C@H]2[C@@H](O)C=C[C@H]3[C@H]1C5 [Morphine, morphine]
Minimal effective dose of the analgesic causing maximal analgesia in tail-flick test (latent period of tail flicking reflex more than 30 sec) (reflex of tail flicking; IG): 3 ± 0.35 mg/kg
Minimal effective dose of the analgesic causing maximal analgesia in tail-flick test (latent period of tail flicking reflex more than 30 sec) (reflex of tail flicking; IG, listed as morphine): 3 mg/kg
Minimal effective dose of the analgesic causing maximal analgesia in tail-flick test (latent period of tail flicking reflex more than 30 sec) (reflex of tail flicking; IM): 3.0 ± 0.37 mg/kg
Minimal effective dose of the analgesic causing maximal analgesia in tail-flick test (latent period of tail flicking reflex more than 30 sec) (reflex of tail flicking; IM, listed as morphine): 3 mg/kg

CC(N)Cc1ccccc1 (stereo not shown) [Phenamine, phenamine]
Dose of phenamine causing the same behavioral stereotypy as phenamine 10 mg/kg IM (phenaminic stereotypy [3]; IG): 20.2 ± 2.3 mg/kg
Dose of phenamine causing the same behavioral stereotypy as phenamine 10 mg/kg IM (phenaminic stereotypy [3]; IG, listed as phenamine): 20 mg/kg
Dose of phenamine causing the same behavioral stereotypy as phenamine 10 mg/kg IM (phenaminic stereotypy [3]; IM): 10.0 ± 1.1 mg/kg
Dose of phenamine causing the same behavioral stereotypy as phenamine 10 mg/kg IM (phenaminic stereotypy [3]; IM, listed as phenamine): 10 mg/kg
